Reference: patent US20080300222A1, “Phosphoantigen Salts Of Organic Bases And Methods For Their Crystallization” (Innate Pharma, priority 2005, published 2008)
Counter-ions that a name gives are not always drawn. Blank lines part the entries; values can stand above or below the compound they belong to.

What was measured:
[1] = DVS hygroscopicity and moisture measurement, second procedure; type: physicochemical; settings: 22° C.
Experimental: Moisture sorption isotherms of the crystalline phases were obtained by using a DVS-1 automated water sorption analyzer (Surface Measurements Systems, Alperton, Middlesex, United Kingdom). The reference material was an empty glass pan and the total gas flow was 200 sccm·min^−1 (Standard Cubic Centimeters per minute). Temperature of analysis was 22° C. For each measurement, precisely ca. 15 mg of the sample were weighed in a glass pan beforehand allowed for the tare, then placed in the analyzer.
As a first stage, dry nitrogen (0% R.H) was applied until constant weight of the sample in order to eliminate adsorbed or absorbed water (potential dehydration). Then, mass variations were recorded while R.H. was increased by steps of 10% R.H. The automated analyzer was allowed to start the following step as soon as the mass variation of the sample was less than 5.10^−4 mg·min^−1. The upper limit was adjusted below the deliquescence of the compound and never exceeded 98% R.H. This second stage was afterward followed by a stepped decrease of R.H. down to 0% R.H. This overall procedure constitutes a ‘Full cycle’ analysis. Several successive full cycles can be applied to the same sample.
DVSWin (v 2.18) was used as control and data collection software whereas data processing was performed by using DVS Standard Analysis Suite (v 4.3).
Further parameters used in DVS procedures are as follows: • Protocole Dynamic Vapour Sorption/Appareil ‘Surface Measurements Systems • Automated Water Sorption Analyser’/model: DVS-1 • Analysis method: • step mode, • Temperature: […] • number of steps, • step dm/dt<0.0005 (mg/min) • First stage R.H.=0% • Last Stage R.H.=98% • Half cycle or Full cycle (or several successive full cycles) • dm/dt window: 5 • Minimum Stage: 20 min • Maximum Stage: 120 min • Total Gaz Flow: 200 • Nitrogen: 200 Bars, H2O<3 ppm, O2<2 ppm, Ref. Azote N50 B50*0 • Initial sample weight: • Software—data collection and data processing • DVSWin v2.18 (control software), • DVS Standard Analysis Suite v4.3 (analysis software).]

[2] = Thermal stability by DSC and TG/DSC analysis
Experimental: DSC analyses were carried out by using a SETARAM 141 Differential Scanning Calorimeter (SETARAM, 69300 Caluire, France). No purge gas was used. The reference material was an empty aluminum pan without cap. The samples were weighed in open aluminum pans, then placed in the analyzer. The analyses were performed within various temperature ranges using a 2°.min^−1 heating rate. SETARAM ACQUISITION Module software (v. 1.4) was used as control software and data processing was performed by using the SETARAM DATA PROCESSING Module software (v. 1.39).
TG/DSC measurements were carried out by using a NETZSCH STA 449C Jupiter Thermogravimetric Analyzer (NETZSCH, D-95100 Selb, Germany) equipped with a low temperature furnace. The purge gas used was helium (gas flow=60 mL/min) and the reference material was an empty aluminum pan without cap. The samples were weighed in open aluminum pans, then placed in the analyzer. The analyses were performed within various temperature ranges using a 2°.min^−1 heating rate. PROTEUS software was used for the acquisition and data processing (v. 4.7.0).

[3] = DVS hygroscopicity and moisture measurement, first procedure; type: physicochemical
Experimental: Moisture sorption isotherms of amorphous BrHPP was obtained by using an automated water sorption analyzer. Temperature of analysis was 20° C. For each measurement, precisely ca. 25 mg of the sample were weighed in a pan beforehand allowed for the tare, then placed in the analyzer.
After a stabilization stage at 0% R.H. (R.H. stands for Relative Humidity), mass variations were recorded while R.H. was increased by steps of 20% R.H. The upper limit was adjusted to 80% R.H. This second stage was afterward followed by a stepped decrease of R.H. down to 0% R.H. This overall procedure constitutes a ‘Full cycle’ analysis. Several successive full cycles can be applied to the same sample.

[4] = Chemical stability on storage, evaluated by HPAEC analysis

reversible and reproducible mass variation, (de)hydration (Rac)-Mix-I / (Rac)-Mix-III ([1]; R.H. in the range of 50%-70%): 6.1% | cumulated mass variations ([1]; between 0% and 50% R.H.): < 0.4% | cumulated mass variations ([1]; high relative humidity (up to 90%)): < 0.2% | temperature of the fusion-degradation event (thermal stability) ([2]; DSC, non solvated crystalline form): above 146 °C
SMILES: CC(O)(CBr)CCOP(=O)(O)OP(=O)(O)O (racemic) [BrHPP benzathin salt (Rac)-Mix-I, 3-(bromomethyl)-3-butanol-1-yl diphosphoric acid, N,N′-dibenzylethylenediammonium salts]

sensitivity to atmospheric water ([3]; even for low R.H.): very sensitive to atmospheric water | deliquescence ([3]; high relative humidities (≧80% R.H.), 20° C., mass not stabilized after 2300 minutes): becomes deliquescent | thermal behaviour in TG/DSC analysis ([2]; fluctuations of DSC signal and continuous mass loss, even for temperatures close to ambient): undergoes chemical degradations | degradation on storage ([4]; 3 months, room temperature (about 25° C.), in contact with ambient atmosphere): 50%
SMILES: CC(O)(CBr)CCOP(=O)(O)OP(=O)(O)O (racemic) [BrHPP sodium salt, reference compound]

anionic purity of the sample over the storage period ([4]; glass vial, room temperature (20-25° C.), ambient atmosphere (50-70% RH), at least 5 months, HPAEC): 99.5%±0.2% | period over which the compound was found to be stable ([4]; stored in a glass vial at room temperature (20-25° C.) and ambient atmosphere (50-70% Relative Humidity)): at least 5 months
SMILES: CC(O)(CBr)CCOP(=O)(O)OP(=O)(O)O (stereo not shown) [3-(bromomethyl)-3-butanol-1-yl diphosphoric acid, diquininium salts]
